In patent publication US20080306155A1, “METHOD FOR TREATING RENAL DISEASE” (priority 2004, published 2008):
“Also recorded” adds a separate entry of the source.

What was measured:
isolated glomeruli = test: Albumin permeability (Palb) of isolated glomeruli; type: cell-based, rat; settings: for increase in Palb produced by TGF-•1 after pretreatment of glomeruli: pretreated with 1 μmol/L for 15 minutes at 37° C., then TGF-•1 10 ng/ml
Procedure: Measurement of Albumin Permeability (Palb): Glomeruli were isolated using the sieving method as previously described in a medium containing 5 g/dl of bovine serum albumin (BSA). See, Sharma R, et al, Kidney Intl. 58:131-136 (2000); and Savin V, et al. J. Am. Soc. Nephrol. 3:1260-1269 (1992). In each experimental condition, Palb was determined from the change in glomerular volume (•V) after exchange of the bath with medium containing 1 g/dl albumin. Palb was calculated as 1−(•Vexperimental/•Vcontrol) where glomeruli from SD rats fed a normal-salt diet were used to provide the control value for each experiment. To verify that lack of •Vs in Dahl S rats were related to changes in Palb rather than to changes in mechanical properties of glomeruli, additional studies were performed in which the glomeruli were exposed to a 5% solution of high molecular weight dextran.
In other experiments, we examined the interaction of TGF-• and 20-HETE on Palb in glomeruli isolated from SD rats and Dahl S rats fed either a LS diet or a HS diet for 4 days. Glomeruli were preincubated with vehicle or TGF-•1 (10 ng/ml) for 15 minutes at 37° C. and changes in Palb were determined. Glomeruli were also pretreated with 5, 14-20-HEDE (WIT003) (1 μmol/L; Taisho Pharmaceutical; Tokyo, Japan) (Alonso-Galicia et al., supra; and Yu et al., supra), for 15 minutes at 37° C. and the Palb response to TGF-• 1 (10 ng/ml) was redetermined. A minimum of 5 glomeruli from each rat were studied, and the experiments were performed using •5 rats per treatment group.

[1] = system: renal ischemia-reperfusion injury in SD rats; test: Renal ischemia-reperfusion injury model (Example 2); type: in vivo, rat; settings: 30 min ischemia, 24 h reperfusion; for degree of renal I/R injury reflected by rise in plasma creatinine concentration: HET0016 5 mg/kg s.c., WIT003 10 mg/kg s.c., 30 min prior, vs vehicle
Procedure: Renal Ischemia-Reperfusion Injury Model: Experiments were performed in male SD rats anesthetized with pentobarbital (50 mg/kg). The kidneys were exposed via a midline incision and the renal arteries isolated. Adjustable vascular occluders were placed on both the right and left renal arteries to completely occlude blood flow to the kidneys for 30 minutes. After the period of complete renal ischemia, the clamps were removed and the kidneys were reperfused. The surgical incisions were closed with 2-0 silk suture and the animals were allowed to fully recover from anesthesia. Twenty four hours later, the rats were reanesthetized with pentobarbital, and a sample of blood collected from the aorta for measurement of plasma creatinine concentration using an autoanalyzer. The kidneys were collected, fixed in 10% formalin solution, and paraffin sections prepared and stained with H&E to evaluate the degree of tubular necrosis and injury.
Three groups of rats were studied. Group 1 rats were treated with vehicle and served as the control animals. Group 2 rats were treated with HET0016 (5 mg/kg, s.c.) 30 minutes prior to renal ischemia. Group 3 rats were given 5, 14-20-HEDE (WIT003) (10 mg/kg, s.c.) by injection 30 minutes prior to renal ischemia.

[2] = system: renal I/R injury in SD rats; test: Renal I/R injury model (Example 3): plasma creatinine, tubular injury, TUNEL; type: in vivo, rat; settings: for area occupied by necrotic tubular epithelium or cast material (tubular injury score): compared to vehicle or HET0016-treated animals; for histological appearance of tubular injury (H&E, fluorescence microscopy): corticomedullary junction; for plasma creatinine: SD rats, 24 h after 30 min ischemia, s.c. 30 min prior: HET0016 5 mg/kg, 5,14-20-HEDE 10 mg/kg, 5,14-20-HEDGE 1 mg/kg; for effect on plasma creatinine 24 hours following renal I/R injury: HET0016 5 mg/kg s.c., 5,14-20-HEDGE 1 mg/kg s.c.
Procedure: Renal I/R Injury Model: Rats were anesthetized with ketamine (50 mg/kg, i.m.) and sodium pentobarbital (50 mg/kg, i.p) and were placed on a heated surgical table to maintain body temperature at 37° C. A midline abdominal incision was made to expose the kidneys, and the renal arteries and veins were bilaterally occluded for 30 minutes using microvascular clamps. The clamps were then removed, the abdominal incision was closed, and the rats were allowed to recover for 24 hours. Rats were then euthanized with sodium pentobarbital (100 mg/kg, i.p.), and blood was collected from the aorta for measurement of plasma creatinine concentration using the Jaffe reaction. Both kidneys were collected for histological analysis.
In addition, the method was repeated on four groups of rats. However, rats were pretreated with a s.c. injection of vehicle or one of three treatments 30 minutes prior to induction of renal ischemia. Group 1 served as the control group and received 1 ml/kg of a vehicle (11% sulfobutyl-•-cyclodextrin in 165 mM mannitol solution, […].); Group 2 received HET0016 (5 mg/kg, s.c.); Group 3 received 5, 14-20-HEDE (10 mg/kg; s.c.); and Group 4 received 5, 14-20-HEDGE (1 mg/kg; s.c.).
Analysis of the degree of tubular injury: The kidneys of rats subjected to renal I/R injury were fixed in 10% formalin and paraffin sections (3•m) were prepared and stained with hematoxylin and eosin. The sections were examined at low power using a 2× objective of an Olympus BHT-2 (Olympus; Center Valley, Pa.) epifluorescent microscope equipped with a 540-nm excitation filter and a 590-nm emission filter. For each specimen, five randomly chosen outer medullary fields were photographed at 100× magnification using a digital color camera and following appropriate thresholding. The percentage of the area containing fluorescent necrotic tubular epithelium or cast material was quantified using Image-Pro Plus image analysis software (version 6.2; Media Cybernetics, Inc.; Bethesda, Md.). TUNEL labeling was also performed to assess the degree of apoptosis following renal LIR injury using an ApopTag Plus In Situ Apoptosis Fluorescein Detection Kit (Chemicon International; Temecula, Calif.) following the manufacturer's protocol. Apoptotic nuclei were visualized at approximately 100× by fluorescence microscopy and quantified using Metamorphi Image Analysis Software (Molecular Devices Corp.; Dowington, Pa.). A total of five fields were analyzed per section, with one section analyzed per animal. Data were expressed as the percentage of TUNEL positive nuclei per total number of DAPI stained cells.

[3] = Plasma levels of the 20-HETE analogs after s.c. injection (LC/MS); type: in vivo, rat; settings: rats, 10 mg/kg s.c.; for peak blood levels: 10 mg/kg
Procedure: Measurement of plasma levels of the 20-HETE analogs: A chronic polyvinyl catheter was implanted into the jugular vein and exteriorized at the back of the neck of SD rats several days prior to an experiment. After a three-day recovery period, the rats (n=4 in each group) received a s.c. injection of either 5, 14-20-HEDE (10 mg/kg) or 5, 14-20-HEDGE (10 mg/kg), and blood samples were collected 1, 4, 8 and 24 hours after administration. Plasma levels of 5, 14-20-HEDE and 5, 14-20-HEDGE were measured by liquid chromatography-mass spectrometry (LC/MS) using an Applied Biosystems API 3000 LC/MS/MS (Foster City, Calif.).

renal I/R injury in rats = test: Renal hemodynamics (laser-Doppler flowmetry, arterial pressure) during and after renal I/R; type: in vivo, rat
Procedure: Assessment of renal hemodynamics: Additional experiments were performed to determine if the renoprotective effect of 5, 14-20-HEDGE on renal I/R injury was associated with changes in renal cortical and medullary hemodynamics. Rats were anesthetized with ketamine (50 mg/kg, i.m.) and Inactin (100 mg/kg, i.p.; Sigma; St. Louis, Mo.). Catheters were placed in the femoral artery for continuous measurement of arterial pressure and in the femoral vein for i.v. infusions. The left kidney was then exposed and placed in a kidney holder and a single-mode optical fiber was implanted 4 mm into the kidney for measurement of MBF by laser-Doppler flowmetry (LDF) as previously described. See, Zou A, et al., J. Hypertens. 13:557-566 (1995). CBF was measured by a second laser-Doppler probe held in static position by a micromanipulator 1 mm above the renal cortex. After surgery and a 30-minute stabilization period, MAP, CBF and MBF were continuously recorded using WinDaq data acquisition software (DATAQ Instruments Inc.; Akron, Ohio) during a 5-minute control period. Baseline MAP, MBF and CBF were determined and then 5, 14-20-HEDGE (1 mg/kg s.c.) or vehicle (1 ml/kg s.c.) were administered. Thirty minutes later, the blood supply to the left kidney was occluded for 45 minutes. MAP, MBF and CBF were recorded during ischemia and for 3 hours following reperfusion.

[4] = 1 mg/kg s.c., vs vehicle, listed as 5, 14-20-HEDGE

| SMILES | Palb after TGF-•1 in glomeruli pretreated with 20-HETE analog (isolated glomeruli; glomeruli from Dahl S rats fed HS diet for 4 days, TGF-•1 10 ng/ml) | Palb, baseline after pretreatment with 20-HETE analog (isolated glomeruli; glomeruli from Dahl S rats fed HS diet for 4 days, before TGF-•1) | baseline Palb after pretreatment of glomeruli (isolated glomeruli; glomeruli pretreated with 1 μmol/L for 15 minutes at 37° C., SD rats) | increase in Palb produced by TGF-•1 after pretreatment of glomeruli (isolated glomeruli; SD rats, listed as 20-HETE analog) | increase in Palb produced by TGF-•1 after pretreatment of glomeruli (isolated glomeruli; SD rats, listed as WIT003) | histological damage to S3 segment of the proximal tubule ([1]; 10 mg/kg s.c., data not shown) | degree of renal I/R injury reflected by rise in plasma creatinine concentration [1] | reduction of plasma creatinine ([2]; 10 mg/kg s.c., 24 h after renal I/R, vs vehicle) | area occupied by necrotic tubular epithelium or cast material (tubular injury score) ([2]; 24 h after renal I/R, listed as 5, 14-20-HEDE) | histological appearance of tubular injury (H&E, fluorescence microscopy) ([2]; 24 h after renal I/R) | plasma creatinine [2] | half-life [3] | peak blood levels [3] | number of apoptotic nuclei (TUNEL staining) ([2]; 24 h after renal I/R, 1 mg/kg s.c., vs vehicle) | area occupied by necrotic tubular epithelium or cast material (tubular injury score) ([2]; 24 h after renal I/R) | effect on plasma creatinine 24 hours following renal I/R injury ([2]; vs vehicle) | CBF or MBF prior to the induction of renal ischemia (renal I/R injury in rats; 1 mg/kg s.c.) | post-ischemic medullary blood flow (MBF) (renal I/R injury in rats; 1 mg/kg s.c. 30 min before 45 min ischemia, 3 h reperfusion, vs vehicle, listed as 5, 14-20-HEDGE) | mean arterial pressure (MAP) (renal I/R injury in rats; [4]) | post-ischemic cortical blood flow (CBF) (renal I/R injury in rats; [4]) |
| --- | --- | --- | --- | --- | --- | --- | --- | --- | --- | --- | --- | --- | --- | --- | --- | --- | --- | --- | --- | --- |
| O=C(O)CCC/C=C\CCCCCCC/C=C\CCCCCO [5,14-20-HEDE, 20-hydroxyeicosa-5(Z),14(Z)-dienoic acid] | 0.40±0.01 | 0.25±0.01 | reduced | greatly attenuated | opposed | reduced | significantly reduced | approximately 50% | less severe renal injury; also recorded: marked reduction | less severe renal injury with only focal tubular necrosis or exfoliation of tubular cells | 1.6 ± 0.3 mg/dL | approximately four | 300 ng/ml and approximately 1 μM |  |  |  |  |  |  |  |
| O=C(O)CNC(=O)CCC/C=C\CCCCCCC/C=C\CCCCCO [5,14-20-HEDGE, N-[20-hydroxyeicosa-5(Z),14(Z)-dienoyl]glycine] |  |  |  |  |  |  |  |  |  | less severe renal injury with only focal tubular necrosis or exfoliation of tubular cells | 0.5 ± 0.02 mg/dL | approximately four | 300 ng/ml and approximately 1 μM | significantly less | less severe renal injury; also recorded: marked reduction | nearly completely prevent the rise | did not have a significant effect | completely prevented the post-ischemic fall in MBF | without altering; also recorded: no effect | without altering; also recorded: no effect |
| CCCCc1ccc(N=CNO)c(C)c1 [HET0016, N-hydroxy-N′-(4-butyl-2-methylphenol)-formamidine, reference compound] |  |  |  |  |  |  | significantly greater |  |  | Diffuse tubular cell denudation, tubular cell necrosis, intratubular debris and tubular casts were present | 3.8 ± 0.3 mg/dL |  |  |  |  | significant increase |  |  |  |  |
